Eight compounds from PubChem BioAssay (NCI) can be followed below.

The GI50 is the concentration that inhibits growth by half. A word on the TGI: it is the concentration giving total growth inhibition. Low readings indicate greater sensitivity of the cells, high ones lower sensitivity of the cells.

Among the test systems are BT-549 breast; HOP-92 NSCLC; K-562 leukemia; NCI/ADR-RES ovarian; OVCAR-4 ovarian; OVCAR-8 ovarian; PC-3 prostate; SF-295 CNS; SW-620 colon; UO-31 renal.
What all share (assay): DTP human tumour cell line panel, 48 h

Molecules are shown by their SMILES.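 Where inhibition never reached the appropriate level, the endpoint shown equals the highest concentration tested. Otherwise, values were interpolated linearly from a five-concentration, 48-hour dose response in 96-well plates. At the GI50, growth is halved. At the TGI there is no net growth.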

Consider `C=C1C(=O)O[C@H]2[C@H]1CC/C(COC(=O)N[C@H](Cc1c[nH]c3ccccc13)C(=O)OC)=C\CC[C@@]1(C)O[C@@H]21`, for which the GI50 in the assay on BT-549 breast is 1370 nM; in the assay with HOP-92 NSCLC it was 1940 nM; in the assay with K-562 leukemia, 1720 nM; with NCI/ADR-RES ovarian, 10.6 µM; with OVCAR-4 ovarian it was 6.44 µM; with OVCAR-8 ovarian it was 2800 nM. The GI50 was 6.49 µM in the assay with PC-3 prostate, 10.7 µM in the assay on SF-295 CNS, 1780 nM in the assay with SW-620 colon and 1490 nM in the assay on UO-31 renal. The TGI in the assay with BT-549 breast is 2.96 µM; in the assay with HOP-92 NSCLC, 5.87 µM; with K-562 leukemia, 8.29 µM; with NCI/ADR-RES ovarian, 37.9 µM; with OVCAR-4 ovarian, 20.4 µM; in the assay with OVCAR-8 ovarian, 9.13 µM. For the same compound, the concentration for total growth inhibition (TGI) in the assay with PC-3 prostate was 20.5 µM; with SF-295 CNS it was 22.7 µM; in the assay with SW-620 colon it was 4.17 µM; in the assay on UO-31 renal, 2.84 µM.
In the case of `Cc1nn(-c2ccccc2)c2nc(C)n(-c3ccc(Br)cc3)c(=O)c12`, the GI50 in the assay on BT-549 breast is 688 nM; in the assay on HOP-92 NSCLC, 579 nM; with K-562 leukemia it was 302 nM; with NCI/ADR-RES ovarian, 0.449 µM; in the assay with OVCAR-4 ovarian, 1.56 µM; in the assay on OVCAR-8 ovarian, 965 nM. The GI50 in the assay with PC-3 prostate is 0.475 µM; with SF-295 CNS, 0.357 µM; in the assay with SW-620 colon it was 353 nM; in the assay with UO-31 renal it was 631 nM. In addition, the TGI in the assay on BT-549 breast is 67.3 µM; with HOP-92 NSCLC, 68 µM; in the assay on K-562 leukemia it was greater than 100 µM; in the assay with NCI/ADR-RES ovarian, greater than 100 µM; in the assay with OVCAR-4 ovarian, greater than 100 µM; with OVCAR-8 ovarian it was greater than 100 µM. Besides, the values for the TGI in the assay with PC-3 prostate, in the assay on SW-620 colon and in the assay on UO-31 renal were greater than 100 µM, greater than 100 µM and 36.7 µM, respectively.
As to `C/C(=N\NC(=S)N1CCN(c2ccccn2)CC1)c1cccc2cccnc12`, the TGI in the assay on BT-549 breast is greater than 100 µM; in the assay on HOP-92 NSCLC, 52.3 µM; with K-562 leukemia it was greater than 100 µM; in the assay on NCI/ADR-RES ovarian, 15.4 µM; with OVCAR-4 ovarian it was greater than 100 µM; in the assay with OVCAR-8 ovarian it was greater than 100 µM. Besides, the TGI was greater than 100 µM with PC-3 prostate, 55.8 µM with SF-295 CNS, greater than 100 µM in the assay on SW-620 colon and greater than 56.5 µM in the assay with UO-31 renal.
For `CC(C)(C)OC(=O)N1Cc2cc3ccccc3nc2C1CO` (centres undefined), the GI50 with BT-549 breast was greater than 100000 nM; in the assay on HOP-92 NSCLC, 57800 nM; in the assay with K-562 leukemia it was greater than 100000 nM; in the assay on NCI/ADR-RES ovarian, greater than 100 µM; in the assay on OVCAR-4 ovarian, greater than 100 µM; in the assay with OVCAR-8 ovarian, greater than 100000 nM. The GI50 was greater than 100 µM with PC-3 prostate, greater than 100 µM in the assay with SF-295 CNS, greater than 100000 nM in the assay with SW-620 colon and greater than 100000 nM in the assay with UO-31 renal. The TGI in the assay on BT-549 breast, in the assay with HOP-92 NSCLC, in the assay on K-562 leukemia, with NCI/ADR-RES ovarian, in the assay with OVCAR-4 ovarian and in the assay with OVCAR-8 ovarian was greater than 100 µM each time. Also, the TGI with PC-3 prostate, in the assay with SF-295 CNS, with SW-620 colon and in the assay with UO-31 renal was greater than 100 µM each time.
Turning to `CC1(C)CN(CCNc2nccc(-c3c(-c4cccc(O)c4)nc4sccn34)n2)S(=O)(=O)N1`, the GI50 with BT-549 breast is greater than 22500 nM; with HOP-92 NSCLC it was 29400 nM; in the assay on K-562 leukemia it was 6460 nM; in the assay with NCI/ADR-RES ovarian it was greater than 33.2 µM; in the assay with OVCAR-4 ovarian it was 12.8 µM; in the assay on OVCAR-8 ovarian, 307 nM. Further, the GI50 in the assay on PC-3 prostate was 17.1 µM; in the assay with SF-295 CNS, 17.7 µM; in the assay with SW-620 colon it was 15700 nM; in the assay on UO-31 renal, 13300 nM. Besides, the TGI in the assay with BT-549 breast, with HOP-92 NSCLC, in the assay on K-562 leukemia, with NCI/ADR-RES ovarian, with OVCAR-4 ovarian and in the assay with OVCAR-8 ovarian was greater than 33.2 µM in each case. Moreover, the TGI in the assay with PC-3 prostate, with SF-295 CNS, in the assay on SW-620 colon and in the assay on UO-31 renal was greater than 33.2 µM in each case.
`Cc1ccc2c(c1)C(O)(c1ccccc1)CCS2` (centres undefined): the TGI with BT-549 breast is 93.6 µM; in the assay on HOP-92 NSCLC, 77.9 µM; with K-562 leukemia it was greater than 100 µM; with NCI/ADR-RES ovarian, greater than 100 µM; with OVCAR-4 ovarian it was greater than 100 µM; in the assay on OVCAR-8 ovarian it was greater than 100 µM. For the same compound, the TGI in the assay on PC-3 prostate was greater than 100 µM; in the assay on SF-295 CNS, 80.3 µM; in the assay on SW-620 colon it was greater than 100 µM; with UO-31 renal, 48.7 µM.
On to `Cc1cn(C2CC(O)C(COC(N)=O)O2)c(=O)[nH]c1=O` (centres undefined), for which the TGI in the assay with BT-549 breast, in the assay on HOP-92 NSCLC, in the assay with K-562 leukemia, in the assay on NCI/ADR-RES ovarian, in the assay on OVCAR-4 ovarian and in the assay on OVCAR-8 ovarian was greater than 100 µM throughout. Moreover, the TGI in the assay on PC-3 prostate, in the assay on SF-295 CNS, with SW-620 colon and with UO-31 renal was greater than 100 µM in each case.
As to `Nc1no[n+]([O-])c1-c1nnc2c(n1)-c1ccccc1C2=O`, the GI50 was 2990 nM in the assay on BT-549 breast; 2210 nM with HOP-92 NSCLC; 1260 nM with K-562 leukemia; 3.73 µM in the assay on NCI/ADR-RES ovarian; 1.42 µM in the assay on OVCAR-4 ovarian; 3190 nM with OVCAR-8 ovarian. The GI50 in the assay on PC-3 prostate was 2.91 µM; in the assay on SF-295 CNS, 12.5 µM; in the assay with SW-620 colon it was 1830 nM; with UO-31 renal, 2250 nM. The TGI with BT-549 breast turned out to be 12.9 µM; in the assay on HOP-92 NSCLC, 6.63 µM; in the assay with K-562 leukemia, 4.54 µM; in the assay with NCI/ADR-RES ovarian, 32.3 µM; with OVCAR-4 ovarian, 2.74 µM; in the assay with OVCAR-8 ovarian it was 10.4 µM. Further, the TGI in the assay with PC-3 prostate was 12.6 µM; in the assay with SF-295 CNS it was 34.3 µM; with SW-620 colon, 3.65 µM; with UO-31 renal, 6.75 µM.
